In patent publication US20210227825A1, “SAFENER” (Nippon Soda Co., Ltd., priority 2018, published 2021):

Test system: rice seedling (variety: Koshihikari)
Experiment: Rice hydroponics test tube test, number of new roots after 5 days (Example 5, Comparative Examples 1 and 2)
Type: in vivo
Details: for safener effect on inhibition of new root development by pyrazosulfuron-ethyl: 0.01 mg pyrazosulfuron-ethyl in 1 L hydroponics solution; for Condition of new roots in test tube of safener composition: 0.01 mg pyrazosulfuron-ethyl plus the safener (0.1 ml safener (A) or 0.01 mg comparative) in 1 L hydroponics solution
Method: One rice seedling (variety: Koshihikari) in the two-leaf stage was transplanted into the test tube. This was placed in an artificial meteorological instrument set to 16 hours (25° C.) in the light period and 8 hours (20° C.) in the dark period. After a lapse of 5 days, the number of new roots was counted. This test was performed a total of 6 times. An average value was calculated from the measured values for 6 times.
A comparative safener composition (1) was obtained by the same method as that for the safener composition (2), with the exception that 0.1 ml of the safener (A) of Example 5 was replaced with a solution obtained by dissolving 0.01 mg of α-naphthylacetamide in 10 μl of DMSO.
A comparative safener composition (2) was obtained by the same method as that for the safener composition (2), with the exception that 0.1 ml of the safener (A) of Example 5 was replaced with a solution obtained by dissolving 0.01 mg of indole butyric acid in 10 μl of DMSO.

Molecule | safener effect on inhibition of new root development by pyrazosulfuron-ethyl | Condition of new roots in test tube of safener composition
NC(=O)Cc1cccc2ccccc12 [α-Naphthylacetamide, α-naphthylacetamide] | no safener effect | 3.3 roots
indole butyric acid | no safener effect | 5.0 roots
